{"source": "ChEMBL document CHEMBL3232894", "about": "“Discovery of AMG 925, a FLT3 and CDK4 dual kinase inhibitor with preferential affinity for the activated state of FLT3” (J Med Chem, 2014)"}
{"tested_on": "not listed separately", "test": "Antiproliferative activity against Rb-negative human MDA-MB-436 cells assessed as incorporation of [3H]thymidine into DNA after 72 hrs by beta-plate counting analysis", "type": "functional", "units": {"IC50": "nM"}}
{"smiles": "C[C@H]1CC[C@H](n2c3cnccc3c3cnc(Nc4ccc(N5CCC(N)CC5)cn4)nc32)CC1", "IC50": 1200}
{"smiles": "O[C@H]1CC[C@H](n2c3cnccc3c3cnc(Nc4ccc(N5CCNCC5)cn4)nc32)CC1", "IC50": 2610}
{"smiles": "c1cc2c3cnc(Nc4ccc(N5CCNCC5)cn4)nc3n(C3CCCCC3)c2cn1", "IC50": 540}
{"smiles": "N#Cc1nccc2c3cnc(Nc4ccc(N5CCNCC5)cn4)nc3n(C3CCCC3)c12", "IC50": 1380}
{"smiles": "O=c1[nH]ccc2c3cnc(Nc4ccc(N5CCNCC5)cn4)nc3n(C3CCCC3)c12", "IC50": 2100}
{"smiles": "C[C@H]1CC[C@H](n2c3cnccc3c3cnc(Nc4ccc(N5CCNCC5)nc4)nc32)CC1", "IC50": 38}
{"tested_on": "MOLM-13", "test": "Antiproliferative activity against human MOLM13 cells harboring FLT3 ITD mutant assessed as incorporation of [3H]thymidine into DNA after 72 hrs by beta-plate counting analysis", "type": "functional, cell-based", "units": {"IC50": "nM"}}
{"smiles": "C[C@H]1CC[C@H](n2c3cnccc3c3cnc(Nc4ccc(N5CCC(N)CC5)cn4)nc32)CC1", "IC50": 8}
{"smiles": "O[C@H]1CC[C@H](n2c3cnccc3c3cnc(Nc4ccc(N5CCNCC5)cn4)nc32)CC1", "IC50": 25}
{"smiles": "N#Cc1nccc2c3cnc(Nc4ccc(N5CCNCC5)cn4)nc3n(C3CCCC3)c12", "IC50": 62}
{"smiles": "O=c1[nH]ccc2c3cnc(Nc4ccc(N5CCNCC5)cn4)nc3n(C3CCCC3)c12", "IC50": 5}
{"smiles": "C[C@H]1CC[C@H](n2c3cnccc3c3cnc(Nc4ccc(N5CCNCC5)nc4)nc32)CC1", "IC50": 5}
{"tested_on": "COLO 205", "test": "Antiproliferative activity against Rb-positive human COLO205 cells assessed as incorporation of [14C]thymidine into DNA after 72 hrs by beta-plate counting analysis", "units": {"IC50": "nM"}}
{"smiles": "C[C@H]1CC[C@H](n2c3cnccc3c3cnc(Nc4ccc(N5CCC(N)CC5)cn4)nc32)CC1", "IC50": 5}
{"smiles": "O[C@H]1CC[C@H](n2c3cnccc3c3cnc(Nc4ccc(N5CCNCC5)cn4)nc32)CC1", "IC50": 66}
{"smiles": "c1cc2c3cnc(Nc4ccc(N5CCNCC5)cn4)nc3n(C3CCCCC3)c2cn1", "IC50": 32}
{"smiles": "N#Cc1nccc2c3cnc(Nc4ccc(N5CCNCC5)cn4)nc3n(C3CCCC3)c12", "IC50": 350}
{"smiles": "O=c1[nH]ccc2c3cnc(Nc4ccc(N5CCNCC5)cn4)nc3n(C3CCCC3)c12", "IC50": 120}
{"smiles": "C[C@H]1CC[C@H](n2c3cnccc3c3cnc(Nc4ccc(N5CCNCC5)nc4)nc32)CC1", "IC50": 7}
{"biological_target": "Cyclin-dependent kinase 4/cyclin D1 (Homo sapiens, UniProt P11802)", "sequence (P11802 whole entry)": "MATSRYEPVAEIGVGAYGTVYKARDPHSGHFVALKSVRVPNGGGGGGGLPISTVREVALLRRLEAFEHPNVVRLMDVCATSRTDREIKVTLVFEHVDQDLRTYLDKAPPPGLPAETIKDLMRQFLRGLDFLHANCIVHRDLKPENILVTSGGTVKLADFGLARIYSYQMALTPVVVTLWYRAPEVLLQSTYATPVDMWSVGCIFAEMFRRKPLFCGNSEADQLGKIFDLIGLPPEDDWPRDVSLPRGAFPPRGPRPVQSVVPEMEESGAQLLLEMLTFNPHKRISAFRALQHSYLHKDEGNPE", "sequence (P24385 whole entry, further chain)": "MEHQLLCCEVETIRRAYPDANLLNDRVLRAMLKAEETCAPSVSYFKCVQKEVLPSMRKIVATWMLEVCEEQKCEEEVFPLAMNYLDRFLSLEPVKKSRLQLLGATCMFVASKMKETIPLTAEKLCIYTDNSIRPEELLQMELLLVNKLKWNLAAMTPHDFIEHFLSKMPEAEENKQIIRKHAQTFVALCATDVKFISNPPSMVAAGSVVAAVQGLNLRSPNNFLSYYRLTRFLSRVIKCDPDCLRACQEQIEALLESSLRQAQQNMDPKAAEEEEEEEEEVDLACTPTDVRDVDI", "test": "Inhibition of CDK4/cyclin D1 (unknown origin) using Rb as substrate after 60 mins by scintillation counting analysis in presence of [r-33P]ATP", "type": "protein-complex assay", "units": {"IC50": "nM"}}
{"smiles": "C[C@H]1CC[C@H](n2c3cnccc3c3cnc(Nc4ccc(N5CCC(N)CC5)cn4)nc32)CC1", "IC50": 2}
{"smiles": "O[C@H]1CC[C@H](n2c3cnccc3c3cnc(Nc4ccc(N5CCNCC5)cn4)nc32)CC1", "IC50": 3}
{"smiles": "c1cc2c3cnc(Nc4ccc(N5CCNCC5)cn4)nc3n(C3CCCCC3)c2cn1", "IC50": 5}
{"smiles": "N#Cc1nccc2c3cnc(Nc4ccc(N5CCNCC5)cn4)nc3n(C3CCCC3)c12", "IC50": 27}
{"smiles": "O=c1[nH]ccc2c3cnc(Nc4ccc(N5CCNCC5)cn4)nc3n(C3CCCC3)c12", "IC50": 5}
{"smiles": "C[C@H]1CC[C@H](n2c3cnccc3c3cnc(Nc4ccc(N5CCNCC5)nc4)nc32)CC1", "IC50": 3}
{"biological_target": "CYP3A4 (Homo sapiens, UniProt P08684)", "sequence (P08684 whole entry)": "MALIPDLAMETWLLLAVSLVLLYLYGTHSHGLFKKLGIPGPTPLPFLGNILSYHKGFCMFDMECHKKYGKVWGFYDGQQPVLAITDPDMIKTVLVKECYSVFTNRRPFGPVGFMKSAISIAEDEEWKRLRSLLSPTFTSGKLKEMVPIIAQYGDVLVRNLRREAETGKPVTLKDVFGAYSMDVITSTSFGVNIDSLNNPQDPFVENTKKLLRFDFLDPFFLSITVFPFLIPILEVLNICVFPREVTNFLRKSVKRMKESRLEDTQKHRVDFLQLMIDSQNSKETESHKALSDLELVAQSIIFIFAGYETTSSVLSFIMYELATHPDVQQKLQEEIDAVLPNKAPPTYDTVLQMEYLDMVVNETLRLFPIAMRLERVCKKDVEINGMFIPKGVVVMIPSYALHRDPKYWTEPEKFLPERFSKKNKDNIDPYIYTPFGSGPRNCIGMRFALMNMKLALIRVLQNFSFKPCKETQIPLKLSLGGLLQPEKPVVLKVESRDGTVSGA", "test": "Inhibition of CYP3A4 (unknown origin) at 3 uM", "type": "ADME", "units": {"inhibition at 3 µM": "%"}}
{"smiles": "O[C@H]1CC[C@H](n2c3cnccc3c3cnc(Nc4ccc(N5CCNCC5)cn4)nc32)CC1", "inhibition at 3 µM": 70}
{"smiles": "c1cc2c3cnc(Nc4ccc(N5CCNCC5)cn4)nc3n(C3CCCCC3)c2cn1", "inhibition at 3 µM": 82}
{"smiles": "O=c1[nH]ccc2c3cnc(Nc4ccc(N5CCNCC5)cn4)nc3n(C3CCCC3)c12", "inhibition at 3 µM": 18}
{"biological_target": "T1, Receptor-type tyrosine-protein kinase FLT3 (Homo sapiens, UniProt P36888)", "T1 sequence (P36888 whole entry)": "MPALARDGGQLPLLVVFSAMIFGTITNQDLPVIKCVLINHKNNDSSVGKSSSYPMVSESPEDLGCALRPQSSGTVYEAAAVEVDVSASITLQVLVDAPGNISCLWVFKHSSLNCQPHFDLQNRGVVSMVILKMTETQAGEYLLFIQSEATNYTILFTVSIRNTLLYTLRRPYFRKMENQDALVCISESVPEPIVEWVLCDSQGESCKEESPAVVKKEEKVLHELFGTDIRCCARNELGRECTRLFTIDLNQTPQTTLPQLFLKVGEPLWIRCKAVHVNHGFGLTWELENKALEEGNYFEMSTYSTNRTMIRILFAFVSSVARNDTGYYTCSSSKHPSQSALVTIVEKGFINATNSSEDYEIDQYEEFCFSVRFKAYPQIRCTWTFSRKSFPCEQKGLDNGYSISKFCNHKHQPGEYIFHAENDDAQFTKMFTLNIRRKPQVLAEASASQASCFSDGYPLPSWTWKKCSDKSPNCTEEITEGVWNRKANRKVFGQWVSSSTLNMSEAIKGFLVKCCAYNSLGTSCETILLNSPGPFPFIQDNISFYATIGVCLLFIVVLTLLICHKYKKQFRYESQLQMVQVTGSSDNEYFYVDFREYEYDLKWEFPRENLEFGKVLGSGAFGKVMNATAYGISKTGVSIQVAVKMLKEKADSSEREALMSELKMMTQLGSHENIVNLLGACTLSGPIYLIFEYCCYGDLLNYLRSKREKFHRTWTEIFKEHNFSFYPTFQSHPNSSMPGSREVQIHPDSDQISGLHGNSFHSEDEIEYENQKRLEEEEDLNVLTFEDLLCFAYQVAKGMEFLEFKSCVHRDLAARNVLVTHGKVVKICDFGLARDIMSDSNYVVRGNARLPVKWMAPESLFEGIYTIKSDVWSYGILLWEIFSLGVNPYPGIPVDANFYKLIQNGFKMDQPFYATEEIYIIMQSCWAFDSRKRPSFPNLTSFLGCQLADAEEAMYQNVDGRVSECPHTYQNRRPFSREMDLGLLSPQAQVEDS", "test": "Inhibition of GST-fused human FLT3 cytoplasmic domain (amino acids 564 to 993) using Ulight-JAK1 as substrate after 1 hr by TR-FRET assay", "units": {"IC50": "nM"}}
{"smiles": "C[C@H]1CC[C@H](n2c3cnccc3c3cnc(Nc4ccc(N5CCC(N)CC5)cn4)nc32)CC1", "IC50": 1}
{"smiles": "O[C@H]1CC[C@H](n2c3cnccc3c3cnc(Nc4ccc(N5CCNCC5)cn4)nc32)CC1", "IC50": 5}
{"smiles": "c1cc2c3cnc(Nc4ccc(N5CCNCC5)cn4)nc3n(C3CCCCC3)c2cn1", "IC50": 2}
{"smiles": "N#Cc1nccc2c3cnc(Nc4ccc(N5CCNCC5)cn4)nc3n(C3CCCC3)c12", "IC50": 46}
{"smiles": "O=c1[nH]ccc2c3cnc(Nc4ccc(N5CCNCC5)cn4)nc3n(C3CCCC3)c12", "IC50": 17}
{"smiles": "C[C@H]1CC[C@H](n2c3cnccc3c3cnc(Nc4ccc(N5CCNCC5)nc4)nc32)CC1", "IC50": 0.3}
{"biological_target": "Cyclin-dependent kinase 1/cyclin B1 (Homo sapiens, UniProt P06493)", "sequence (P06493 whole entry)": "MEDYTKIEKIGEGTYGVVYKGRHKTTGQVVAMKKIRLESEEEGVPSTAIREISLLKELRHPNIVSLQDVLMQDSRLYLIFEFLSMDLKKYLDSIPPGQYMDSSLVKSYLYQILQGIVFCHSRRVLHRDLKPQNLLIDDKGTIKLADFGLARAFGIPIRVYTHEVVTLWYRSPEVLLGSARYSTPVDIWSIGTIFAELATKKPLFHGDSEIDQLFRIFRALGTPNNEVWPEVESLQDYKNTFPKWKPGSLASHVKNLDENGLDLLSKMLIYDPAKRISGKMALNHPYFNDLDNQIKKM", "sequence (P14635 whole entry, further chain)": "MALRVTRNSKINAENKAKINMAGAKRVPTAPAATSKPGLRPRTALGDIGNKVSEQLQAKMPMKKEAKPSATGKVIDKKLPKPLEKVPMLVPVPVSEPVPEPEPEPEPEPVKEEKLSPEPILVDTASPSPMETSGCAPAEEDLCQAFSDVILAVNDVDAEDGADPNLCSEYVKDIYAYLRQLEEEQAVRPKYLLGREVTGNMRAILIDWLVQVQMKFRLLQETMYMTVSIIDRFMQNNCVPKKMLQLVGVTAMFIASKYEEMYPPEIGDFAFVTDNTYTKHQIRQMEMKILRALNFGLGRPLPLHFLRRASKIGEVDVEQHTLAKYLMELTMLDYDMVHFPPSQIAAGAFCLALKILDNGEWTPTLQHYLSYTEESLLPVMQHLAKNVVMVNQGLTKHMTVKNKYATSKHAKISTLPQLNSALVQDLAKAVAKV", "test": "Inhibition of CDK1/cyclin B (unknown origin) using histone H1 as substrate after 60 mins by scintillation counting analysis in presence of [r-33P]ATP", "type": "protein-complex assay", "units": {"IC50": "nM"}}
{"smiles": "C[C@H]1CC[C@H](n2c3cnccc3c3cnc(Nc4ccc(N5CCC(N)CC5)cn4)nc32)CC1", "IC50": 410}
{"smiles": "O[C@H]1CC[C@H](n2c3cnccc3c3cnc(Nc4ccc(N5CCNCC5)cn4)nc32)CC1", "IC50": 3410}
{"smiles": "c1cc2c3cnc(Nc4ccc(N5CCNCC5)cn4)nc3n(C3CCCCC3)c2cn1", "IC50": 6530}
{"smiles": "N#Cc1nccc2c3cnc(Nc4ccc(N5CCNCC5)cn4)nc3n(C3CCCC3)c12", "IC50": 30000}
{"smiles": "O=c1[nH]ccc2c3cnc(Nc4ccc(N5CCNCC5)cn4)nc3n(C3CCCC3)c12", "IC50": 10000}
{"smiles": "C[C@H]1CC[C@H](n2c3cnccc3c3cnc(Nc4ccc(N5CCNCC5)nc4)nc32)CC1", "IC50": 24}
